{"source": "patent US20060052396A1", "about": "“Arylamines for the treatment of conditions associated with gsk-3” (priority 2001, published 2006)", "data": [{"smiles": "CN(C)S(=O)(=O)c1ccccc1-c1cnc(N)c(C(=O)Nc2cccnc2)n1", "note": "[Example 235, 3-Amino-6-{2-[(dimethylamino)sulfonyl]phenyl}-N-pyridin-3-ylpyrazine-2-carboxamide]", "values": [{"measurement": "melting point", "result": "221.5 to 223", "unit": "°C"}]}]}
